Source: patent US9447136B2, “Semisynthetic derivatives of Nystatin A1” (BLIRT S.A., priority 2012, dated 2016)
Where two headings read alike, the source gives them in different places.

Columns and labels:
[1] = tested on: Candida albicans ATCC 10231; experiment: Antifungal activity in vitro, serial dilution in RPMI 1640; type: cell-based; conditions: Table 2A, RPMI 1640, pH 7.0; for Antifungal activity Candida albicans ATCC 10231 IC50: A531 50% of control; for Antifungal activity Candida albicans ATCC 10231 MIC: A531 at most 20% of control
In short: (§1)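 In buffered RPMI 1640 at pH 7.0, fungi were exposed to serially diluted compound (M27-A2 standard) and turbidity was recorded at 531 nm. Values relative to control: IC50 at 50%, MIC as lowest concentration at ≤20%.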

[2] = tested on: Candida glabrata DSM 11226; experiment: as above; type: cell-based; conditions: Table 2A; RPMI 1640, pH 7.0
In short: as §1

Candida krusei DSM 6128 = experiment: as above; type: cell-based; conditions: Table 2A; RPMI 1640, pH 7.0
In short: as §1

[3] = tested on: Candida tropicalis KKP 334; experiment: as above; type: cell-based; conditions: Table 2A; RPMI 1640, pH 7.0
In short: as §1

[4] = tested on: Saccharomyces cerevisiae ATCC 9763; experiment: as above; type: cell-based; conditions: Table 2A; RPMI 1640, pH 7.0; A531 at most 20% of control
In short: as §1

LLC-PK1 = experiment: Cytotoxic activity against mammalian cells in tissue culture (MTT); type: cell-based, pig
Protocol: (§2) For examinations were used selected cell lines: CCRF-CEM—human acute lymphoblastic leukemia; HepG2—human malignant hepatoma; LLC-PK1—epithelial cell of pig kidney; All lines were from ATCC collection.
(§3) The study are conducted using described below methods of culturing and determination of cytotoxic activity.
(§4) CCRF-CEM cells were cultured in medium RPMI 1640+10% fetal bovine serum (FBS), LLC-PK1 cells in medium Medium 199+3% FBS, HepG2 cells in medium MEM+10% FBS. All media contained 100 μg/ml of penicillin G and streptomycin. 24-wells microplates containing appropriate medium were inoculated with the cells in amount of 1.2×10^4 cells/well and allowed to stand overnight. Next, tested compounds as solution in dimethylsulfoxide (DMSO) were added in volume of 10 μl (serial 2× dilutions). To control well 10 μl of DMSO was added. Microplates with cell suspensions were incubated for 120 h at temperature 37° C. at atmosphere of 95%/5% CO2. After incubation, to all wells 200 μl of solution of 3-(4,5-dimethylthiazole-2-yl)-2,5-diphenylotetrazole bromide (MTT) in PBS (4 mg/ml) was added and plates were further incubated for 4 h at 37° C. Next, to dissolve crystals of formazane 1 ml of DMSO was added and absorption of solutions was measured at the wavelength λ=540 nm (A540), using a microplates reader (Victor^3, Perkin-Wallac). […] From these graphs IC50 values were read, that is concentration of tested compound in the presence at which A540 value is half of A540 value measured in the control sample.

HepG2 = experiment: as above; type: cell-based, human
Protocol: as §2, §3, §4

CCRF-CEM = experiment: as above; type: cell-based, human
Protocol: as §2, §3, §4

Human erythrocytes = experiment: Hemotoxicity (hemolytic activity); conditions: for Hemotoxicity BEH50: 37° C., 30 minutes, concentration causing 50% hemolysis, maximum concentration 300 μg/ml
Protocol: The hemotoxicity determination were carried out by the serial dilutions method, according to the procedure described earlier (Ślisz, M., et al., E., J Antibiot 57: 669-678 (2004)). Human erythrocytes were suspensed in the solution of saline to obtain a cell density of suspension 2×10^7/ml. Suitable amounts of diluted solutions of compounds were added to the cell suspension in tubes and were incubated at 37° C. for 30 minutes and then centrifuged (1700×g, 10 min, 4° C.). The concentration of hemoglobin in supernatant after centrifugation of erythrocytes suspension were determined by measuring the absorbance at wavelength λ=540 nm (A540). The maximum level of hemolysis was obtained after incubation of cells suspension in the presence of 0.1% Tritone X-100 (control sample). […] From these graphs, the EH50 values were read which are the interpolated concentrations of compound, for which the A540 value is exactly 50% of the A540 value measured for the control sample.

[5] = tested on: Candida lusitaniae DSM 70102; experiment: Antifungal activity in vitro, serial dilution in RPMI 1640; type: cell-based; conditions: Table 2A; RPMI 1640, pH 7.0
In short: as §1

[6] = human erythrocytes, concentration causing 10% of hemolysis

## CC1OC(O[C@H]2/C=C/C=C/C=C/C=C/CC/C=C/C=C/[C@H](C)[C@@H](O)[C@@H](C)[C@H](C)OC(=O)C[C@H](O)C[C@H](O)C[C@H](O)CC[C@@H](O)[C@H](O)CC3(O)C[C@H](O)[C@@H](C(=O)O)[C@H](C2)O3)C(O)C(NC(=O)[C@H](N)Cc2cccc3ccccc23)C1O (stereo partly drawn) [Compound N39]
[1]
  Antifungal activity Candida albicans ATCC 10231 IC50: 6.05 µg/mL
  Antifungal activity Candida albicans ATCC 10231 MIC: 8 µg/mL
[2]
  Antifungal activity Candida glabrata DSM 11226 MIC: 16 µg/mL
Candida krusei DSM 6128
  Antifungal activity Candida krusei DSM 6128 MIC: 16 µg/mL
[3]
  Antifungal activity Candida tropicalis KKP 334 MIC: 8 µg/mL
[4]
  Antifungal activity Saccharomyces cerevisiae ATCC 9763 MIC: 8 µg/mL
LLC-PK1
  Cytotoxicity IC50 LLC-PK1: >100 µg/mL
HepG2
  Cytotoxicity IC50 HepG2: >100 µg/mL
CCRF-CEM
  Cytotoxicity IC50 CCRF-CEM: >100 µg/mL

## CC1OC(O[C@H]2/C=C/C=C/C=C/C=C/CC/C=C/C=C/[C@H](C)[C@@H](O)[C@@H](C)[C@H](C)OC(=O)C[C@H](O)C[C@H](O)C[C@H](O)CC[C@@H](O)[C@H](O)CC3(O)C[C@H](O)[C@@H](C(=O)O)[C@H](C2)O3)C(O)C(NC(=O)[C@@H](N)Cc2ccccc2)C1O (stereo partly drawn) [Compound N34, N-L-phenylalanylnystatin A1]
[1]
  Antifungal activity Candida albicans ATCC 10231 IC50: 6.01 µg/mL
  Antifungal activity Candida albicans ATCC 10231 MIC: 8 µg/mL
[2]
  Antifungal activity Candida glabrata DSM 11226 MIC: 8 µg/mL
Candida krusei DSM 6128
  Antifungal activity Candida krusei DSM 6128 MIC: 8 µg/mL
[3]
  Antifungal activity Candida tropicalis KKP 334 MIC: 8 µg/mL
[4]
  Antifungal activity Saccharomyces cerevisiae ATCC 9763 MIC: 4 µg/mL
Human erythrocytes; human erythrocytes
  Hemotoxicity BEH50: >300 µg/mL
Human erythrocytes; human erythrocytes, 60 μg ml^−1
  % of hemolysis at the concentration 60 μg ml^−1: 0.02%
HepG2; HepG2, 120 h, MTT
  Cytotoxicity IC50 HepG2: >100 µg/mL
CCRF-CEM; CCRF-CEM, 120 h, MTT
  Cytotoxicity IC50 CCRF-CEM: >100 µg/mL

## CC1C=CC=CCCC=CC=CC=CC=CC(OC2OC(C)C(O)C(N(CCCN(C)C)CC3(O)OCC(O)C(O)C3O)C2O)CC2OC(O)(CC(O)C(O)CCC(O)CC(O)CC(O)CC(=O)OC(C)C(C)C1O)CC(O)C2C(=O)O (stereo not drawn) [Compound N30, N-fructosyl-N-[3-(N′,N′-dimethylamin)propyl]nystatin A1]
[1]
  Antifungal activity Candida albicans ATCC 10231 IC50: 5.79 µg/mL
  Antifungal activity Candida albicans ATCC 10231 MIC: 8 µg/mL
[2]
  Antifungal activity Candida glabrata DSM 11226 MIC: 16 µg/mL
Candida krusei DSM 6128
  Antifungal activity Candida krusei DSM 6128 MIC: 16 µg/mL
[3]
  Antifungal activity Candida tropicalis KKP 334 MIC: 16 µg/mL
[4]
  Antifungal activity Saccharomyces cerevisiae ATCC 9763 MIC: 8 µg/mL
[5]
  Antifungal activity Candida lusitaniae DSM 70102 MIC: 8 µg/mL

## C[C@@H]1[C@H](O)[C@@H](C)/C=C/C=C/CC/C=C/C=C/C=C/C=C/[C@H](O[C@@H]2O[C@H](C)[C@@H](O)[C@H](N(C)C)[C@@H]2O)C[C@@H]2O[C@](O)(C[C@@H](O)C[C@@H](O)[C@H](O)CC[C@@H](O)C[C@@H](O)CC(=O)O[C@H]1C)C[C@H](O)[C@H]2C(=O)O [Compound N23, N,N-dimethylnystatin A1]
[1]
  Antifungal activity Candida albicans ATCC 10231 IC50: 2.47 µg/mL
  Antifungal activity Candida albicans ATCC 10231 MIC: 4 µg/mL
[2]
  Antifungal activity Candida glabrata DSM 11226 MIC: 8 µg/mL
Candida krusei DSM 6128
  Antifungal activity Candida krusei DSM 6128 MIC: 8 µg/mL
[3]
  Antifungal activity Candida tropicalis KKP 334 MIC: 4 µg/mL
[4]
  Antifungal activity Saccharomyces cerevisiae ATCC 9763 MIC: 4 µg/mL
[5]
  Antifungal activity Candida lusitaniae DSM 70102 MIC: 2 µg/mL
Human erythrocytes
  EH10: 214.20 µg/mL

## CC1OC(O[C@H]2/C=C/C=C/C=C/C=C/CC/C=C/C=C/[C@H](C)[C@@H](O)[C@@H](C)[C@H](C)OC(=O)C[C@H](O)C[C@H](O)C[C@H](O)CC[C@@H](O)[C@H](O)CC3(O)C[C@H](O)[C@@H](C(=O)O)[C@H](C2)O3)C(O)C(NCc2ccccc2)C1O (stereo partly drawn) [Compound N21, N-benzylnystatin A1]
[1]
  Antifungal activity Candida albicans ATCC 10231 IC50: 2.32 µg/mL
  Antifungal activity Candida albicans ATCC 10231 MIC: 4 µg/mL
[2]
  Antifungal activity Candida glabrata DSM 11226 MIC: 4 µg/mL
Candida krusei DSM 6128
  Antifungal activity Candida krusei DSM 6128 MIC: 4 µg/mL
[3]
  Antifungal activity Candida tropicalis KKP 334 MIC: 4 µg/mL
[4]
  Antifungal activity Saccharomyces cerevisiae ATCC 9763 MIC: 2 µg/mL
Human erythrocytes; human erythrocytes
  Hemotoxicity BEH50: 188.56 µg/mL
Human erythrocytes; [6]
  EH10: 91.60 µg/mL
LLC-PK1; LLC-PK1, 120 h, MTT
  Cytotoxicity IC50 LLC-PK1: >100 µg/mL
HepG2; HepG2, 120 h, MTT
  Cytotoxicity IC50 HepG2: 68.3 ± 8.06 µg/mL
CCRF-CEM; CCRF-CEM, 120 h, MTT
  Cytotoxicity IC50 CCRF-CEM: 91.9 ± 4.35 µg/mL

## CC1OC(O[C@H]2/C=C/C=C/C=C/C=C/CC/C=C/C=C/[C@H](C)[C@@H](O)[C@@H](C)[C@H](C)OC(=O)C[C@H](O)C[C@H](O)C[C@H](O)CC[C@@H](O)[C@H](O)CC3(O)C[C@H](O)[C@@H](C(=O)O)[C@H](C2)O3)C(O)C(NC2CC(=O)N(CCN3CCCCC3)C2=O)C1O (stereo partly drawn) [Compound N8, N—[N′-2-(piperidin-1-yl)ethylsuccinimidyl]nystatin A1]
[1]
  Antifungal activity Candida albicans ATCC 10231 IC50: 1.54 µg/mL
  Antifungal activity Candida albicans ATCC 10231 MIC: 2 µg/mL
[2]
  Antifungal activity Candida glabrata DSM 11226 MIC: 4 µg/mL
Candida krusei DSM 6128
  Antifungal activity Candida krusei DSM 6128 MIC: 4 µg/mL
[3]
  Antifungal activity Candida tropicalis KKP 334 MIC: 2 µg/mL
[4]
  Antifungal activity Saccharomyces cerevisiae ATCC 9763 MIC: 2 µg/mL
[5]
  Antifungal activity Candida lusitaniae DSM 70102 MIC: 2 µg/mL
Human erythrocytes; [6]
  EH10: 150.73 µg/mL

## N-[3-(piperidin-1-yl)propionyl]nystatin A1 [Compound N44]
[1]
  Antifungal activity Candida albicans ATCC 10231 IC50: 2.95 µg/mL
  Antifungal activity Candida albicans ATCC 10231 MIC: 4 µg/mL
[2]
  Antifungal activity Candida glabrata DSM 11226 MIC: 8 µg/mL
Candida krusei DSM 6128
  Antifungal activity Candida krusei DSM 6128 MIC: 8 µg/mL
[3]
  Antifungal activity Candida tropicalis KKP 334 MIC: 4 µg/mL
[4]
  Antifungal activity Saccharomyces cerevisiae ATCC 9763 MIC: 4 µg/mL
Human erythrocytes
  % of hemolysis at the concentration 60 μg ml^−1: 0.95%
Human erythrocytes; [6]
  EH10: 209.39 µg/mL
LLC-PK1; LLC-PK1, 120 h, MTT
  Cytotoxicity IC50 LLC-PK1: >100 µg/mL
HepG2; HepG2, 120 h, MTT
  Cytotoxicity IC50 HepG2: >100 µg/mL
CCRF-CEM; CCRF-CEM, 120 h, MTT
  Cytotoxicity IC50 CCRF-CEM: >100 µg/mL

## N,N-diethylnystatin A1 [Compound N24]
[1]
  Antifungal activity Candida albicans ATCC 10231 IC50: 3.82 µg/mL
  Antifungal activity Candida albicans ATCC 10231 MIC: 8 µg/mL
[2]
  Antifungal activity Candida glabrata DSM 11226 MIC: 16 µg/mL
Candida krusei DSM 6128
  Antifungal activity Candida krusei DSM 6128 MIC: 16 µg/mL
[3]
  Antifungal activity Candida tropicalis KKP 334 MIC: 8 µg/mL
[4]
  Antifungal activity Saccharomyces cerevisiae ATCC 9763 MIC: 8 µg/mL
[5]
  Antifungal activity Candida lusitaniae DSM 70102 MIC: 4 µg/mL

## C[C@@H]1[C@H](O)[C@@H](C)/C=C/C=C/CC/C=C/C=C/C=C/C=C/[C@H](O[C@@H]2O[C@H](C)[C@@H](O)[C@H](NC(=S)NCCN(C)C)[C@@H]2O)C[C@@H]2O[C@](O)(C[C@@H](O)C[C@@H](O)[C@H](O)CC[C@@H](O)C[C@@H](O)CC(=O)O[C@H]1C)C[C@H](O)[C@H]2C(=O)O [Compound N18, N-{3-[2-(N,N-dimethylamino)ethyl]thioureidyl}nystatin A1]
[1]
  Antifungal activity Candida albicans ATCC 10231 IC50: 2.97 µg/mL
  Antifungal activity Candida albicans ATCC 10231 MIC: 4 µg/mL
[2]
  Antifungal activity Candida glabrata DSM 11226 MIC: 8 µg/mL
Candida krusei DSM 6128
  Antifungal activity Candida krusei DSM 6128 MIC: 8 µg/mL
[3]
  Antifungal activity Candida tropicalis KKP 334 MIC: 4 µg/mL
[4]
  Antifungal activity Saccharomyces cerevisiae ATCC 9763 MIC: 4 µg/mL
[5]
  Antifungal activity Candida lusitaniae DSM 70102 MIC: 4 µg/mL
